Where two headings read alike, the source gives them in different places.
How the values were obtained:
[1] = target: recombinant human SYK (GST-hSYK fusion protein) (Homo sapiens, UniProt P43405)
Excerpt: Homogeneous Time-Resolved Fluorescence (HTRF) Assay for the Recombinant Human SYK Enzyme:

rhSYK = rhSYK (Homo sapiens, UniProt P43405)
[2] = read-out: rhSYK Activity, Table 113A
[3] = read-out: rhSYK Activity, Table 54D
[4] = read-out: rhSYK Activity (IC50), recombinant human GST-SYK 5 pM, ATP 25 μM, biotinylated substrate peptide 250 nM, HTRF, 10-dose titration
[5] = read-out: rhSYK Activity, Table 33B
[6] = read-out: rhSYK Activity, Table 119, two symbols in a cell = one per listed form
[7] = read-out: rhSYK Activity, class symbol, where two forms are listed, one symbol per form
[8] = read-out: rhSYK activity, class symbol given

Structure (SMILES)	IC50 (rhSYK; [7]) [µM]	further results
CCOC(=O)C1CCC(O)(c2ncc(-c3cc(C)cc(Nc4nccc(C)n4)c3)s2)C(C)C1C (stereo not shown) [Example 113A-71]	–	IC50 [1, 2]: < 0.1 µM
Cc1cc(Nc2nccc(C(F)(F)F)n2)cc(-c2cnc(C3(O)CCCN(C(=O)CC(=O)O)CC3)s2)c1 (single isomer, unassigned) [Example 54D-26]	–	IC50 [1, 3]: < 0.1 µM
Cc1cc(Nc2nccc(C(O)C3CC3)n2)cc(-c2cnc(C3(O)CCC(C(=O)O)C(C)(C)C3)s2)c1 (single isomer, unassigned) [Example 100A-19]	–	IC50 [1, 4]: < 0.1 µM
Cc1cc(Nc2nccc(C(F)(F)F)n2)cc(-c2cnc(C3(O)CCC(NC(=O)CC4CCCO4)CC3)s2)c1 (stereo not shown) [Example 54E-19]	–	IC50 ([1]; read-out: rhSYK Activity, Table 54E): < 0.1 µM
Cc1cc(Nc2nccc(C(F)(F)F)n2)cc(-c2cnc(C3(O)CCCN(C(=O)CC4CCOC4)CC3)s2)c1 (stereo not shown) [Example 54D-69]	–	IC50 [1, 3]: < 0.1 µM
Cc1cc(Nc2nccc(C(F)(F)F)n2)cc(-c2cnc(C3(O)CCCN(C(=O)c4nnnn4C)CC3)s2)c1 (single isomer, unassigned) [Example 54D-58]	–	IC50 [1, 3]: < 0.1 µM
Cc1cc(Nc2nccc(C(C)(O)C3CC3)n2)cc(-c2cnc(C3(O)CCC(C(=O)O)C(C)(C)C3)s2)c1 (single isomer, unassigned) [Example 100A-26]	–	IC50 [1, 4]: < 0.1 µM
CCOC(=O)C1CCC(O)(c2ncc(-c3cc(C)cc(Nc4nccc(C)n4)c3)s2)C(C)C1C (stereo not shown) [Example 113A-73]	–	IC50 [1, 2]: < 0.1 µM
CCOC(=O)C1CCC(O)(c2ncc(-c3cc(C)cc(Nc4nccc(OCCOC)n4)c3)s2)CC1C (stereo not shown) [Example 113A-44]	–	IC50 [1, 2]: < 0.1 µM
Cc1cc(Nc2nccc(OC3CCCNCC3)n2)cc(-c2cnc(C3(O)CCC3)s2)c1 (stereo not shown) [Example 108A-11]	–	IC50 ([1]; read-out: rhSYK Activity, Table 108A): < 0.1 µM
CCOC(=O)CC(=O)N1CCCC(O)(c2ncc(-c3cc(C)cc(Nc4nccc(C(F)(F)F)n4)c3)s2)CC1 (single isomer, unassigned) [Example 54D-74]	–	IC50 [1, 3]: < 0.1 µM
Cc1cc(Nc2nccc(C(F)(F)F)n2)cc(-c2cnc(C3(O)CCCN(C(=O)CC(N)=O)CC3)s2)c1 (single isomer, unassigned) [Example 54D-21]	–	IC50 [1, 3]: < 0.1 µM
Cc1cc(Nc2nccc(C(F)(F)F)n2)cc(-c2cnc(C3(O)CCCN(C(=O)c4[nH]nnc4Cl)CC3)s2)c1 (single isomer, unassigned) [Example 54D-101]	–	IC50 [1, 3]: < 0.1 µM
Cc1cc(Nc2nccc(C(F)(F)F)n2)cc(-c2cnc(C3(O)CCCN(C(=O)CCC(N)=O)CC3)s2)c1 (single isomer, unassigned) [Example 54D-42]	–	IC50 [1, 3]: < 0.1 µM
Cc1cc(Nc2nccc(C)n2)cc(-c2cnc(C3(O)CCC(C(=O)O)C(C)C3)s2)c1 (stereo not shown) [Example 33B-32]	–	IC50 [1, 5]: < 0.1 µM
Cc1cc(Nc2nccc(C)n2)cc(-c2cnc(C3(O)CC(C)C(C(=O)O)CC3C)s2)c1 (stereo not shown) [Example 113B-2]	–	IC50 ([1]; read-out: rhSYK Activity, Table 113B): < 0.1 µM
Cc1cc(Nc2nccc(C(F)(F)F)n2)cc(-c2cnc(C3(O)CCCN(C(=O)Cc4n[nH]c(=O)[nH]4)CC3)s2)c1 (stereo not shown) [Example 54D-94]	–	IC50 [1, 3]: < 0.1 µM
Cc1cc(Nc2nccc(C(F)(F)F)n2)cc(-c2cnc(C3(O)CCC(CC(=O)O)C3)s2)c1 (single isomer, unassigned) [Example 33B-27]	–	IC50 [1, 5]: < 0.1 µM
COc1ccnc(Nc2cc(C)cc(-c3cnc(C4(O)CCC(C(=O)O)CC4)s3)c2)n1 (stereo not shown) [Example 33A-36]	–	IC50 ([1]; read-out: rhSYK Activity, Table 33-A): < 0.1 µM
Cc1cc(Nc2nccc(C)n2)cc(-c2cnc(C3(O)CCC(C(=O)O)C(C)C3C)s2)c1 (stereo not shown) [Example 113A-67]	–	IC50 [1, 2]: < 0.1 µM

Structure (SMILES)	IC50 (rhSYK; [7]) [µM]	further results
Cc1cc(Nc2nccc(C(F)(F)F)n2)cc(-c2cnc(C3(O)CCC(C(N)=O)C(C)C3)s2)c1 (single isomer, unassigned) [Example 119-112]	–	IC50 (rhSYK; [6]): < 0.1 µM
CC(O)(c1ncc(-c2cccc(Nc3nccc(C(F)(F)F)n3)c2)s1)C1CCC1 (stereo not shown) [Example 4A-23]	< 0.1	–
Cc1cc(Nc2nccc(C(F)(F)F)n2)cc(-c2cnc(C(O)(CO)C(F)(F)F)s2)c1 (single isomer, unassigned) [Example 6-9]	< 0.1	–
Cc1cc(Nc2nccc(C(F)(F)F)n2)cc(-c2cnc([C@]3(O)CC[C@H](C(=O)O)CC3)s2)c1 [33(2)-K, Potassium trans-4-hydroxy-4-[5-(3-methyl-5-{[4-(trifluoromethyl)pyrimidin-2-yl]amino}phenyl)-1,3-thiazol-2-yl]cyclohexanecarboxylate]	–	IC50 (rhSYK; [8]): < 0.1 µM
CC(O)(c1ccc(S(C)(=O)=O)s1)c1ncc(-c2cccc(Nc3nccc(C(F)(F)F)n3)c2)s1 (stereo not shown) [Example 4A-29]	0.1 to 1	–
Cc1cc(Nc2nccc(C(F)(F)F)n2)cc(-c2cnc(C(C)(O)c3ccc(CC(=O)O)cc3)s2)c1 (single isomer, unassigned) [Example 4A-60]	< 0.1	–
CC1CCCC1(O)c1ncc(-c2cccc(Nc3nccc(C(F)(F)F)n3)c2)s1 (stereo not shown) [Example 4B-2]	< 0.1	–
Cc1cc(Nc2ncc(F)c(C)n2)cc(-c2cnc(C(C)(O)CO)s2)c1 (stereo not shown) [Ex 5-9]	< 0.1	–
Cc1cc(Nc2ncc(Cl)cn2)cc(-c2cnc(C(C)(O)CO)s2)c1 (stereo not shown) [Ex 5-13]	0.1 to 1	–
COc1ccc(Nc2nccc(C(F)(F)F)n2)cc1-c1cnc(C2(O)CCC2)s1 [Example 1-1]	< 0.1	–
CC(C)C(O)(c1ncc(-c2cccc(Nc3nccc(C(F)(F)F)n3)c2)s1)C(C)C [Example 4A-24]	0.1 to 1	–
CC(O)(c1cnccn1)c1ncc(-c2cccc(Nc3nccc(C(F)(F)F)n3)c2)s1 (stereo not shown) [Example 4A-22]	< 0.1	–
CC(O)(c1ccn(S(=O)(=O)c2ccccc2)c1)c1ncc(-c2cccc(Nc3nccc(C(F)(F)F)n3)c2)s1 (stereo not shown) [Example 4A-12]	0.1 to 1	–
O=C(c1ccon1)c1ncc(-c2cccc(Nc3nccc(C(F)(F)F)n3)c2)s1 [Example 4B-5]	< 0.1	–
Cc1cc(Nc2nccc(C(F)(F)F)n2)cc(-c2cnc(C3(O)CCC(C#N)CC3)s2)c1 (stereo not drawn) [37(2), trans-4-hydroxy-4-[5-(3-methyl-5-{[4-(trifluoromethyl)pyrimidin-2-yl]amino}phenyl)-1,3-thiazol-2-yl]cyclohexanecarbonitrile]	–	IC50 (rhSYK; [8]): < 0.1 µM
CCOC(=O)N1C2CCC1CC(O)(c1ncc(-c3cccc(Nc4nccc(C(F)(F)F)n4)c3)s1)C2 (stereo not shown) [Example 4B-3]	0.1 to 1	–
Cc1cc(Nc2nccc(C(C)F)n2)cc(-c2cnc(C3(O)CCC(C(N)=O)C(C)(C)C3)s2)c1 (stereo not shown) [Example 119-123]	–	IC50 (rhSYK; [6]): < 0.1 µM
Cc1cc(Nc2nccc(C(F)(F)F)n2)cc(-c2cnc(C(C)(O)c3ccc(CC(=O)O)cc3)s2)c1 (stereo not shown) [Example 4A-58]	< 0.1	–
Cc1cc(Nc2nccc(C(F)(F)F)n2)cc(-c2cnc([C@]3(O)CC[C@H](CC(=O)O)CC3)s2)c1 [Example 4C-15]	< 0.1	–
CC(O)(c1ncc(-c2cccc(Nc3nccc(C(F)(F)F)n3)c2)s1)C(F)(F)F (stereo not shown) [Example 4A-2]	< 0.1	–

Structure (SMILES)	IC50 (rhSYK; [7]) [µM]	further results
COC(=O)C1CCC(O)(c2ncc(-c3cc(C)cc(Nc4nccc(C(F)(F)F)n4)c3)s2)CC1C(C)C (stereo not shown) [Example 4C-25]	0.1 to 1	–
CC(=O)NC1(c2ncc(-c3cc(C)cc(Nc4nccc(C(F)(F)F)n4)c3)s2)CCC1 [Example 66, N-{1-[5-(3-methyl-5-{[4-(trifluoromethyl)pyrimidin-2-yl]amino}phenyl)-1,3-thiazol-2-yl]cyclobutyl}acetamide]	–	IC50 (rhSYK; [8]): < 0.1 µM
Cc1cc(Nc2nccc(C(F)(F)F)n2)cc(-c2cnc(C3(NS(=O)(=O)C(C)(C)C)COC3)s2)c1 [Example 61, 2-methyl-N-{3-[5-(3-methyl-5-{[4-(trifluoromethyl)pyrimidin-2-yl]amino}phenyl)-1,3-thiazol-2-yl]oxetan-3-yl}propane-2-sulfonamide]	–	IC50 (rhSYK; [8]): < 0.1 µM
Cc1cc(Nc2nccc(C(F)(F)F)n2)cc(-c2cnc(C3(O)CC4C(Br)CC3C4C(=O)O)s2)c1 (stereo not shown) [Example 4B-54]	< 0.1	–
CCOC(=O)C1(C(C)(O)c2ncc(-c3cccc(Nc4nccc(C(F)(F)F)n4)c3)s2)CC1 (stereo not shown) [Example 4A-26]	0.1 to 1	–
Cc1cc(Nc2nccc(C(F)(F)F)n2)cc(-c2cnc(C(O)(C3CC3)C3CC3)s2)c1 [Example 4A-37]	< 0.1	–
COC(OC)C(O)(c1ccccn1)c1ncc(-c2cc(C)cc(Nc3nccc(C(F)(F)F)n3)c2)s1 (stereo not shown) [Example 4A-62]	< 0.1	–
Cc1cc(Nc2nccc(C(F)(F)F)n2)cc(-c2cnc(C(C)(O)c3ccc(CC(=O)O)cc3)s2)c1 (single isomer, unassigned) [Example 4A-59]	< 0.1	–
Cc1cc(Nc2nccc(C(F)(F)F)n2)cc(-c2cnc(C(C)(O)CO)s2)c1 (stereo not shown) [Ex 5-7]	< 0.1	–
Cc1cc(Nc2nccc(C(C)C)n2)cc(-c2cnc(C3(O)CCC(C(N)=O)C(C)C3)s2)c1 (stereo not shown) [Example 119-11]	–	IC50 (rhSYK; [6]): < 0.1 µM
Cc1cc(Nc2nccc(C(F)(F)F)n2)cc(-c2cnc([C@]3(O)CC[C@@H](C(=O)O)CC3)s2)c1 [33(1)-K, Potassium cis-4-hydroxy-4-[5-(3-methyl-5-{[4-(trifluoromethyl)pyrimidin-2-yl]amino}phenyl)-1,3-thiazol-2-yl]cyclohexanecarboxylate]	–	IC50 (rhSYK; [8]): < 0.1 µM
Cc1cc(Nc2nccc(C(F)(F)F)n2)cc(-c2cnc(C(C)(O)CF)s2)c1 (stereo not shown) [Example 4A-33]	< 0.1	–
CC(C)(C)C(C)(O)c1ncc(-c2cccc(Nc3nccc(C(F)(F)F)n3)c2)s1 (stereo not shown) [Example 4A-6]	0.1 to 1	–
OC(c1cccnc1)(c1nnco1)c1ncc(-c2cccc(Nc3nccc(C(F)(F)F)n3)c2)s1 (stereo not shown) [Example 4A-27]	0.1 to 1	–
Cc1cc(Nc2nccc(C(F)(F)F)n2)cc(-c2cnc(C(C)(O)c3cccc(-c4cccc(C(=O)O)c4)c3)s2)c1 (stereo not shown) [Example 4A-75]	< 0.1	–
Cc1cc(Nc2nccc(C(F)(F)F)n2)cc(-c2cnc([C@]3(O)CC[C@@H](NC(=O)Cn4ccnc4)CC3)s2)c1 [Example 4C-29]	< 0.1	–
Cc1cc(Nc2ncc(F)c(C3CC3)n2)cc(-c2cnc(C(C)(O)CO)s2)c1 (stereo not shown) [Ex 5-18]	< 0.1	–
Cc1cc(Nc2nccc(C(F)(F)F)n2)cc(-c2cnc(C3(O)CCC(CC(N)=O)CC3)s2)c1 (stereo not shown) [Example 117-10]	–	IC50 (rhSYK; read-out: rhSYK Activity, Table 117): < 0.1 µM

Source: patent US8551984B2, “Aminopyrimidines as SYK inhibitors” (Merck Sharp & Dohme Corp., priority 2009, dated 2013)
